GI50 and TGI data for 27 compounds are collected here from PubChem BioAssay (NCI).

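Where inhibition never reached the appropriate level, the endpoint shown equals the highest concentration tested. Otherwise, values were interpolated linearly from a five-concentration, 48-hour dose response in 96-well plates. GI50 = concentration required for 50% inhibition of growth. TGI: total growth inhibition.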 Where only a bound is given, the exact number is not on record here.

This assay relates to MDA-MB-468 breast. Kind of assay: DTP human tumour cell line panel, 48 h.
What is called GI50 is the concentration giving 50% growth inhibition. Broadly, the TGI is the concentration at which net growth stops. High values mean lower sensitivity of the cells, low ones greater sensitivity of the cells. For `CC(C)[C@H]1CC[C@H]2[C@@H](CC[C@H]3[C@](C)(CN)CCC[C@]23C)C1`, the GI50 is 8.83 µM and the TGI came out at 23.5 µM.
For `Cc1cc2cc3cc(C)c(N(C)C)cc3[n+](C)c2cc1N(C)C`, in that order: 0.95 µM and 13.5 µM.
For `Clc1cc2c(cc1Cl)Oc1cc(Cl)c(Cl)cc1O2`, in that order: more than 0.625 µM and more than 0.625 µM.
As to `O=c1ccc(N=Nc2ccc([N+](=O)[O-])cc2)ccc1O`, the GI50 is 3.8 µM and the TGI was determined as 81.2 µM.
The matching figures for `CC(C)Nc1ccc(Nc2ccccc2)cc1`: 4.45 µM and 19.7 µM.
For `CCOc1ccc(-c2cnnn2-c2nonc2-n2cccc2)cc1`, in that order: 0.12 µM and 0.495 µM.
For `Clc1ccc(/C=C/c2cc(N3CCOCC3)c3cc(Cl)c(Cl)cc3n2)cc1`, in that order: more than 100 µM and more than 100 µM.
For `O=S(=O)(Cc1ccc(Cl)cc1Cl)c1ccc(Cl)cc1`, the GI50 was 0.265 µM and the TGI turned out to be 2.19 µM.
The matching figures for `COc1cc(C(=O)N2N=C(c3ccc(S(C)(=O)=O)cc3)CC2c2ccco2)cc(OC)c1OC` (centres undefined): 2.49 µM and more than 26 µM.
On to `CCN(CC)c1ccc(/C=C2/C[N+](C)(C)C/C(=C/c3ccc(N(CC)CC)cc3)C2=O)cc1`, for which the GI50 was 1.32 µM and the TGI is 3.57 µM.
For `CN(Cc1ccc(Cl)cc1)c1ccc(CO)c(Cl)c1`, in that order: 0.0657 µM and 0.219 µM.
For `O=C(CSc1nc2sc3c(c2c(=O)n1-c1ccc(Cl)cc1)CCCC3)NNC(=O)Nc1ccc(Cl)c(C(F)(F)F)c1`, in that order: 1.55 µM and 3.66 µM.
The matching figures for `N#C/C(=N\Nc1ccc(Cl)cc1)C(=O)Nc1cc(-c2ccccc2)nn1-c1ccccc1`: 1.84 µM and 5.93 µM.
Regarding `O=C(Nc1ccc(F)cc1)Nc1ccccc1CNc1nc(Nc2ccc(OCCN3CCCC3)cc2)ncc1Cl`, the GI50 is 1.12 µM and the TGI turned out to be 2.89 µM.
For `N#Cc1ncc(-c2ccc(C(F)(F)F)cc2)c(NCc2cc(C(F)(F)F)cc(C(F)(F)F)c2)n1`, in that order: 2.56 µM and 7.38 µM.
The matching figures for `O=c1c2ccccc2c(Br)c(Br)c2ccccc12`: 2.74 µM and 9.55 µM.
Consider `COc1cccc(C2C3=C(COC3=O)N(CCO)c3cc(OC)ccc32)c1` (centres undefined), for which the GI50 was 0.0365 µM and the TGI came out at 1.26 µM.
For `CC(=O)Nc1ccc(/C=C/C(=O)c2ccccc2)cc1`, the GI50 was 11.7 µM and the TGI worked out at 26 µM.
For `O=C1C2C(C(=O)[N]1[Hg][c]1cccs1)C1(Cl)C(Cl)=C(Cl)C2(Cl)C1(Cl)Cl` (centres undefined), in that order: 1.25 µM and 2.7 µM.
For `O=c1c2c3c(sc2n2c(-c4cc(-c5ccccc5)no4)nnc2n1Cc1ccccc1)CCCC3`, the GI50 is 14.6 µM and the TGI was 43.8 µM.
The matching figures for `CN(c1cc2ncc(=O)[nH]c2cc1NC(N)=NCc1ccc(Cl)cc1)C1CCCCC1`: 1.23 µM and 4.42 µM.
`c1ccc(C2CC(c3cccc(Nc4ccncc4)c3)=NN2c2ccccc2)cc1` (centres undefined): the GI50 was 1.49 µM and the TGI came to 3.02 µM.
For `Cc1ccc(NC(=O)Cc2ccc(/C=C/C(=O)c3ncc[nH]3)cc2)cc1`, in that order: 3.3 µM and 23.4 µM.
The matching figures for `Cn1cc(C2=C(c3cn(CCO)c4ccccc34)C(=O)NC2=O)c2ccccc21`: 2.52 µM and 10.8 µM.
The matching figures for `Oc1ccccc1/C=N/Nc1nc(N/N=C/c2ccccc2O)nc(N2CCOCC2)n1`: 4.11 µM and 35.9 µM.
Take `C/C=C/C/C=C/CCC(=O)[C@H]1O[C@H]1C(N)=O`: the GI50 is 11.7 µM and the TGI worked out at 25.9 µM.
The matching figures for `CC/C(=C(/c1ccc(OCCN(C)C)cc1)c1ccc(OC(=O)CCC(=O)c2c(C)[nH]c(/C=C3\N=C(c4ccc[nH]4)C=C3OC)c2C)cc1)c1ccccc1`: 2.9 µM and 14 µM.
